Assay results: patent US8188273B2, “Insecticidal (1,3,5)-triazinyl phenyl hydrazones” (Dow AgroSciences, LLC., priority 2007, dated 2012)
Where two headings read alike, the source gives them in different places.

Columns and labels:
[1] = tested on: beet armyworm (Spodoptera exigua); test: Insecticidal test on treated lepidopteran diet, beet armyworm; type: in vivo; details: 120 h, read-out: AVG LAPHEG 50 (percent control, beet army worm)
Experimental: (§1) The compounds identified in Table 1 were prepared according to the previous methods and were tested against beet armyworm and corn earworm as follows:
(§2) Insecticidal Test for Corn Earworm (Helicoverpa zea) and Beet Armyworm (Spodoptera exigua).
(§3) To prepare test solution, the test compound was formulated at 2000 ppm solution as 4 mg/2 mL of 9 acetone:1 tap water. 50 μL of the 2000 ppm (equivalent to 50 μg/cm^2 dose on diet surface area) test solution was pipetted upon the surface of 1 mL of lepidopteran diet (Southland Multi-Species Lepidopteran Diet) contained in each of eight wells per insect species (one well=1 replication). A second-instar corn earworm and beet armyworm was placed upon the treated diet in each well once the solvent had air-dried. Trays containing the treated diet and larvae were covered and then held in a growth chamber at 25° C., 50-55% RH, and 16 hr light:8 hr dark for 5 days. Observation were conducted 5 days after treatment and infestation. The number of dead insects of 8 per species per treatment was then determined and the results are given in Table 1 as a percent control at a dose of […].
(§4) Keys to the table: Mass spectral data were obtained using liquid chromatography mass spectroscopy (LC-MS). The masses are detected using electrospray ionization (ESI) and reported as Mol Ion (M+H, M−H); AVG LAPHEG 50 refers to activity against beet army worm (Spodoptera exigua) as defined above; AVG HELIZE 50 refers to activity against corn ear worm (Helicoverpa zea) as described above.

[2] = tested on: corn earworm (Helicoverpa zea); test: Insecticidal test on treated lepidopteran diet, corn earworm; type: in vivo; details: 120 h, read-out: AVG HELIZE 50 (percent control, corn ear worm)
Experimental: as §1, §2, §3, §4

[3] = second-instar larvae on treated diet, 8 wells, dose of 50 mg/cm^2 [sic] (2000 ppm, 50 μL), dead insects counted 5 days after treatment

Structure (SMILES) | pest or weed control at 2000 µg/mL [1, 3] [%] | pest or weed control at 2000 µg/mL [2, 3] [%] | pest or weed control at 2000 µg/mL [1] [%] | pest or weed control at 2000 µg/mL [2] [%]
FC(F)C(F)(F)Oc1cccc(Nc2nc(NCc3ccc(Cl)nc3)nc(N/N=C/c3ccc(Cl)cc3)n2)c1 [Compound 86] | 100 | 100 |  | 
FC(F)C(F)(F)Oc1ccc(Nc2nc(NCc3ccc(Cl)nc3)nc(N/N=C/c3ccc(Cl)cc3)n2)cc1 [Compound 87] | 100 | 100 |  | 
Fc1ccc(Nc2nc(Cl)nc(N/N=C/c3ccc(OC(F)(F)F)cc3)n2)cc1C(F)(F)F [Compound 88] | 100 | 100 |  | 
FC(F)C(F)(F)Oc1ccc(Nc2nc(N/N=C/c3ccc(Cl)c(Cl)c3)nc(N3CCOCC3)n2)cc1 [Compound 89] | 100 | 100 |  | 
FC(F)C(F)(F)Oc1ccc(Nc2nc(NCc3ccc(Cl)nc3)nc(N/N=C/c3ccc(C(F)(F)F)cc3)n2)cc1 [Compound 93] | 100 | 100 |  | 
FC(F)C(F)(F)Oc1ccc(Nc2nc(NCc3ccc(Cl)nc3)nc(N/N=C/c3ccc(Cl)c(Cl)c3)n2)cc1 [Compound 94] | 100 | 100 |  | 
FCCOc1ccc(/C=N/Nc2nc(NCc3ccc(Cl)nc3)nc(Nc3ccc(F)c(C(F)(F)F)c3)n2)cc1 [Compound 95] |  |  | 75 | 38
N#Cc1ccc(/C=N/Nc2nc(NCc3ccc(Cl)nc3)nc(Nc3ccc(OC(F)(F)C(F)F)cc3)n2)cc1 [Compound 96] | 100 | 100 |  | 
Fc1ccc(Nc2ncnc(N/N=C/c3ccc(OC(F)(F)C(F)F)cc3)n2)cc1C(F)(F)F [Compound 97] | 100 | 100 |  | 
FC(F)(F)COc1nc(N/N=C/c2ccc(Br)cc2)nc(Nc2ccc(OC(F)(F)F)cc2)n1 [Compound 98] | 100 | 100 |  | 
FC(F)C(F)(F)Oc1ccc(/C=N/Nc2ncnc(Nc3cccc(C(F)(F)F)c3)n2)cc1 [Compound 100] | 100 | 100 |  | 
FC(F)(F)Oc1ccc(/C=N/Nc2ncnc(Nc3cccc(C(F)(F)F)c3)n2)cc1 [Compound 101] | 100 | 100 |  | 
Fc1ccc(Nc2ncnc(N/N=C/c3cccc(C(F)(F)F)c3)n2)cc1C(F)(F)F [Compound 102] | 100 | 100 |  | 
FC(F)(F)c1cccc(/C=N/Nc2ncnc(Nc3cccc(C(F)(F)F)c3)n2)c1 [Compound 103] | 38 | 100 |  | 
FC(F)C(F)(F)Oc1ccc(Nc2ncnc(N/N=C/c3cccc(C(F)(F)F)c3)n2)cc1 [Compound 104] | 50 | 88 |  | 
